Where two headings read alike, the source gives them in different places.
Legend:
[1] = system: Botrytis cinerea; experiment: Poison plate assay (MIC and synergy index); assay type: cell-based, Botrytis cinerea strain BC03019; settings: 168 h
Procedure: Activity against fungal growth was determined with the poison plate assay. A calculated amount of a stock solution (containing either DDAC, boscalid, fenhexamid, pyrimethanil, thiophanate-methyl, triflumizole, azoxystrobin, dimoxystrobin, picoxystrobin, or pyraclostrobin in a concentration of 500 ppm in dimethyl sulfoxide) was pipetted into 24-well plates in order to reach a final test concentration ranging from 0.21 to 5 ppm in 12 steps when mixed with a culture medium. These culture media were either Glucose Agar (GA) (10 g glucose, 1.5 g K2HPO4, 2 g KH2PO4, 1 g (NH4)2SO4, 0.5 g MgSO4 and 12.5 g agar in 1 liter deionised water) when pyrimethanil was used as the test substance or Potato Dextrose Agar (PDA) (4 g potato infusion, 20 g bacto dextrose and 15 g bacto agar in 1 liter deionised water) for any of the other test substances. The medium was inoculated with 2 μl of a spore/mycelium suspension. The 24-well plates were kept in the dark at a temperature of 22° C., and a relative humidity of 75% and evaluated for fungal growth after one week.
The following fungi species were used in the poison plate assay: Penicillium digitatum strain Sas (sensitive to demethylase inhibiting fungicides), Penicillium digitatum strain LDW930223 (reduced sensitivity to demethylase inhibiting fungicides), Penicillium italicum strain H17 (reduced sensitivity to demethylase inhibiting fungicides), Botrytis cinerea strain BC03019, Geotrichum candidum, or Gloeosporium album strain A18.
The lowest concentration in ppm of each test compound or mixture of test compounds sufficient to inhibit visible growth was taken as the minimum inhibitory concentration (MIC). When no fungal growth was observed, the abbreviation “ng” was used in Table 2. Synergy was calculated using the Synergy Index method described by von Kull et al. (F. C. Kull, P. C. Eismann, H. D. Sylvestrowicz, R. L. Mayer, 1961, Applied Microbiology 9: 538-541).
Synergistic Index (SI)=(x/m)+(y/n) • m and n are the MIC values of test substances 1 and 2 respectively, when applied alone • x and y are the respective quantities of test substances 1 and 2 in mixtures which also cause the complete inhibition of fungal growth, i.e. x and y equal [quantity of test substances 1 and 2, resp., in the mixture (e.g. 0.8 and 0.2, 066 and 0.33 . . . )] multiplied by [MIC-value of the mixture]. […] A result smaller than 1 indicates a synergistic effect of the combination.

[2] = system: Penicillium digitatum; experiment: Curative treatment by dipping of lemons artificially inoculated with Penicillium digitatum; assay type: in vivo; settings: read-out: % Efficacy
Procedure: Aqueous test solutions were prepared with concentrations of 10 μg/ml, 100 μg/ml and 1000 μg/ml of DDAC (I); and 500 μg/ml of imazalil (II-a). These test solutions were used to prepare mixtures comprising component (I) and component (II-a) with a concentration respectively of 1000 μg/ml of (I) and 500 μg/ml of (II-a); 100 μg/ml of (I) and 500 μg/ml of (II-a) and 10 μg/ml of (I) and 500 μg/ml of (II-a).
Lemons were artificially inoculated with a 10 mm diameter cork borer dipped in a spore suspension containing 10^6 cfu/ml of Penicillium digitatum. The lemons were treated after 24 hours by submerging for 30 seconds in one of the test solutions.
Treated and untreated lemons were incubated for 14 days in a dark climate room at 20° C. After the incubation period, the diameter of fungal growth was measured and % efficacy (growth inhibition) versus control was calculated. Fungal growth was quantified by measuring the distance, in mm, between the perimeter of the 10 mm diameter inoculation ring and the perimeter of the damaged zone.
Synergy was considered to occur when the observed effect, or measured activity, of a combination of both components was greater than the corresponding Ec value.

[3] = % DDAC + % test substance 0 + 100 (test substance alone), Potato Dextrose Agar, one week, read-out: MIC (minimum inhibitory concentration in ppm total a.i.)

COC(=O)N(OC)c1ccccc1COc1ccn(-c2ccc(Cl)cc2)n1 [pyraclostrobin, methyl N-(2-[1-(4-chlorophenyl)-1H-pyrazol-3-yloxymethyl]phenyl](N-methoxy)carbamate]
MIC [1, 3]: > 5 µg/mL

CCCCCCCCCC[N+](C)(C)CCCCCCCCCC.[Cl-] [DDAC, didecyl dimethyl ammonium chloride]
Emax at 10 µg/mL [2]: 0% | Emax at 100 µg/mL [2]: 0% | Emax at 1000 µg/mL [2]: 22% | MIC ([1]; read-out: MIC (minimum inhibitory concentration in ppm total a.i.), % DDAC + % test substance 100 + 0 (DDAC alone), Glucose Agar (pyrimethanil series), one week): 5 µg/mL | MIC ([1]; read-out: MIC (minimum inhibitory concentration in ppm total a.i.), % DDAC + % test substance 100 + 0 (DDAC alone), Potato Dextrose Agar, one week): > 5 µg/mL

O=C(Nc1ccccc1-c1ccc(Cl)cc1)c1cccnc1Cl [boscalid, 2-chloro-N-(4′-chlorobiphenyl-2-yl)-nicotinamide]
MIC [1, 3]: > 5 µg/mL

CC1(C(=O)Nc2ccc(O)c(Cl)c2Cl)CCCCC1 [fenhexamid, 2′,3′-dichloro-4′-hydroxy-1-methylcyclohexanecarboxanilide]
MIC [1, 3]: 1.58 µg/mL

Cc1cc(C)nc(Nc2ccccc2)n1 [pyrimethanil, 4,6-dimethyl-N-phenyl-2-pyrimidinamine]
MIC ([1]; % DDAC + % test substance 0 + 100 (test substance alone), Glucose Agar, one week, read-out: MIC (minimum inhibitory concentration in ppm total a.i.)): 2.11 µg/mL

COC(=O)NC(=S)Nc1ccccc1NC(=S)NC(=O)OC [thioph. methyl, 4,4′-(o-phenylene)bis(3-thioallophanate)]
MIC [1, 3]: 2.11 µg/mL

CCCOC/C(=N\c1ccc(Cl)cc1C(F)(F)F)n1ccnc1 [triflumizole, (E)-4-chloro-α,α,α-trifluoro-N-(1-imidazol-1-yl-2-propoxyethylidene)-o-toluidine]
MIC ([1]; read-out: MIC (minimum inhibitory concentration in ppm total a.i.), % DDAC + % test substance 0 + 100 (test substance alone), Potato Dextrose Agar, one week): > 5 µg/mL

C=CCOC(Cn1ccnc1)c1ccc(Cl)cc1Cl (stereo not drawn) [Imazalil (IIa)]
Emax at 500 µg/mL ([2]; test concentration 500 μg/ml, lemon, dipped 24 h after inoculation, 14 days incubation): 78%
